Experimental data as given in patent US10538555B2, “Macrocyclic inhibitors of the PD-1/PD-L1 and CD80(B7-1)/PD-L1 protein/protein interactions” (BRISTOL-MYERS SQUIBB COMPANY, priority 2014, dated 2020).
Several values for one entry are separate records, joined by “and”; a condition that tells them apart may be missing. Identical values can stand only once. Like-named read-outs stand apart in the source and are kept apart here. Where a SMILES comes first, the peptide text is derived from it. Bridges are numbered along the chain shown (N, C = ends). [ ]: non-standard residue; d: D form. ξ: configuration not given here. Trp(1-CH2COOH) = N[C@@H](Cc1cn(CC(=O)O)c2ccccc12)C(=O)O; Hyp = O=C(O)[C@@H]1C[C@@H](O)CN1; Thr(3ξ) = CC(O)[C@H](N)C(=O)O; NMeNle = CCCC[C@H](NC)C(=O)O; NMeA = CN[C@@H](C)C(=O)O; Orn = NCCC[C@H](N)C(=O)O; Dab = NCC[C@H](N)C(=O)O; Dap = NC[C@H](N)C(=O)O

Target: T1, Human PD-L1/PD-1 (Homo sapiens, UniProt Q9NZQ7)
T1 construct: TVMV protease cleavage site (C); made in house; host or cells: HEK293T cells
T1 sequence (Q9NZQ7 with tags, fused parts or gaps): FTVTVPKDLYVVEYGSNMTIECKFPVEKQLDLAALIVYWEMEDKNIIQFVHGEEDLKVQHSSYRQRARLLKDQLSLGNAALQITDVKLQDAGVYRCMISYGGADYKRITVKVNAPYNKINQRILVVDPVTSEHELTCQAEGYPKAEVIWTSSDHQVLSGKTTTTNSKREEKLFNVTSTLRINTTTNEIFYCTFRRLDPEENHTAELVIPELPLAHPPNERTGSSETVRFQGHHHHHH
Experiment: HTRF Human PD-L1/PD-1 binding assay (PD-1-Ig/PD-L1-His)
Details: PD-L1-His 10 nM, PD-1-Ig 20 nM
Procedure, shortened: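 Truncated Fc-fused human PD-1 (aa 25-167) at 20 nM and His-tagged PD-L1 (aa 18-239) at 10 nM final are used, with peptides preincubated 15 min with PD-L1. Detection uses europium-cryptate anti-Ig and APC anti-His antibodies; 665/620 nm ratio.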

[1] = class symbol, read-out: HTRF Human PD-L1/PD-1 Binding Assay IC50 Range

| Structure (SMILES) | IC50 [1] | IC50 (read-out: HTRF Human PD-L1/PD-1 Binding Assay IC50) |
| --- | --- | --- |
| CCCC[C@H]1C(=O)N(C)[C@@H](CCCC)C(=O)N[C@@H](CCC(=O)O)C(=O)N[C@H](C(=O)NCC(N)=O)CSCC(=O)N[C@@H](Cc2ccc(OC)cc2)C(=O)N(C)[C@@H](C)C(=O)N[C@@H](CC(N)=O)C(=O)N2CCC[C@H]2C(=O)N[C@@H](CN)C(=O)N[C@@H](CCCCN)C(=O)N2C[C@H](O)C[C@H]2C(=O)N[C@@H](Cc2c[nH]c3ccccc23)C(=O)N[C@@H](CC(=O)O)C(=O)N[C@@H](Cc2c[nH]c3ccccc23)C(=O)N1C [Example 7127] ({CH2CO}-Y(Me)[NMeA]NP[Dap]K[Hyp]WDW[NMeNle][NMeNle]ECG-NH2; thioether N-14) | 10 to 99.9 nM |  |
| CCCC[C@H]1C(=O)N(C)[C@@H](CCCC)C(=O)N[C@@H](CCCN)C(=O)N[C@H](C(=O)NCC(N)=O)CSCC(=O)N[C@@H](Cc2ccc(OC)cc2)C(=O)N(C)[C@@H](C)C(=O)N[C@@H](CC(N)=O)C(=O)N2CCC[C@H]2C(=O)N[C@@H](Cc2cnc[nH]2)C(=O)N[C@@H](CCCCN)C(=O)N2C[C@H](O)C[C@H]2C(=O)N[C@@H](Cc2c[nH]c3ccccc23)C(=O)N[C@@H](CC(=O)O)C(=O)N[C@@H](Cc2c[nH]c3ccccc23)C(=O)N1C [Example 7128] ({CH2CO}-Y(Me)[NMeA]NPHK[Hyp]WDW[NMeNle][NMeNle][Orn]CG-NH2; thioether N-14) | 10 to 99.9 nM |  |
| CCCC[C@H]1C(=O)N(C)[C@@H](CCCC)C(=O)N[C@@H](CCCN)C(=O)N[C@H](C(=O)NCC(N)=O)CSCC(=O)N[C@@H](Cc2ccc(OC)cc2)C(=O)N(C)[C@@H](C)C(=O)N[C@@H](CC(=O)O)C(=O)N2CCC[C@H]2C(=O)N[C@@H](CN)C(=O)N[C@@H](CCCCN)C(=O)N2C[C@H](O)C[C@H]2C(=O)N[C@@H](Cc2c[nH]c3ccccc23)C(=O)N[C@@H](CC(=O)O)C(=O)N[C@@H](Cc2c[nH]c3ccccc23)C(=O)N1C [Example 7129] ({CH2CO}-Y(Me)[NMeA]DP[Dap]K[Hyp]WDW[NMeNle][NMeNle][Orn]CG-NH2; thioether N-14) | 1 to 9.9 nM |  |
| CCCC[C@H]1C(=O)N(C)[C@@H](CCCC)C(=O)N[C@@H](CCC(=O)O)C(=O)N[C@H](C(=O)NCC(N)=O)CSCC(=O)N[C@@H](Cc2ccc(OC)cc2)C(=O)N(C)[C@@H](C)C(=O)N[C@@H](CC(=O)O)C(=O)N2CCC[C@H]2C(=O)N[C@@H](CN)C(=O)N[C@@H](CCCCN)C(=O)N2C[C@H](O)C[C@H]2C(=O)N[C@@H](Cc2c[nH]c3ccccc23)C(=O)N[C@@H](CC(=O)O)C(=O)N[C@@H](Cc2c[nH]c3ccccc23)C(=O)N1C [Example 7130] ({CH2CO}-Y(Me)[NMeA]DP[Dap]K[Hyp]WDW[NMeNle][NMeNle]ECG-NH2; thioether N-14) | 10 to 99.9 nM |  |
| CCCC[C@H]1C(=O)N(C)[C@@H](CCCC)C(=O)N[C@@H](CCC(=O)O)C(=O)N[C@H](C(=O)NCC(N)=O)CSCC(=O)N[C@@H](Cc2ccc(OC)cc2)C(=O)N(C)[C@@H](C)C(=O)N[C@@H](CC(=O)O)C(=O)N2CCC[C@H]2C(=O)N[C@@H](Cc2cnc[nH]2)C(=O)N[C@@H](CCCCN)C(=O)N2C[C@H](O)C[C@H]2C(=O)N[C@@H](Cc2c[nH]c3ccccc23)C(=O)N[C@@H](CC(=O)O)C(=O)N[C@@H](Cc2c[nH]c3ccccc23)C(=O)N1C [Example 7131] ({CH2CO}-Y(Me)[NMeA]DPHK[Hyp]WDW[NMeNle][NMeNle]ECG-NH2; thioether N-14) | 1 to 9.9 nM |  |
| CCCC[C@H]1C(=O)N(C)[C@@H](CCCC)C(=O)N[C@@H](CCC(=O)O)C(=O)N[C@H](C(=O)NCC(N)=O)CSCC(=O)N[C@@H](Cc2ccc(OC)cc2)C(=O)N(C)[C@@H](C)C(=O)N[C@@H](CCN)C(=O)N2CCC[C@H]2C(=O)N[C@@H](Cc2cnc[nH]2)C(=O)N[C@@H](CCC(=O)O)C(=O)N2C[C@H](O)C[C@H]2C(=O)N[C@@H](Cc2c[nH]c3ccccc23)C(=O)N[C@@H](CC(=O)O)C(=O)N[C@@H](Cc2c[nH]c3ccccc23)C(=O)N1C [Example 7132] ({CH2CO}-Y(Me)[NMeA][Dab]PHE[Hyp]WDW[NMeNle][NMeNle]ECG-NH2; thioether N-14) | 100 to 990 nM and 10 to 99.9 nM |  |
| CCCC[C@H]1C(=O)N(C)[C@@H](CCCC)C(=O)N[C@@H](CCC(=O)O)C(=O)N[C@H](C(=O)NCC(N)=O)CSCC(=O)N[C@@H](Cc2ccc(OC)cc2)C(=O)N(C)[C@@H](C)C(=O)N[C@@H](CC(=O)O)C(=O)N2CCC[C@H]2C(=O)N[C@@H](CN)C(=O)N[C@@H](CCC(=O)O)C(=O)N2C[C@H](O)C[C@H]2C(=O)N[C@@H](Cc2c[nH]c3ccccc23)C(=O)N[C@@H](CC(=O)O)C(=O)N[C@@H](Cc2c[nH]c3ccccc23)C(=O)N1C [Example 7133] ({CH2CO}-Y(Me)[NMeA]DP[Dap]E[Hyp]WDW[NMeNle][NMeNle]ECG-NH2; thioether N-14) | 10 to 99.9 nM |  |
| CCCC[C@H]1C(=O)N(C)[C@@H](CCCC)C(=O)N[C@@H](CC(C)C)C(=O)N[C@H](C(=O)NCC(N)=O)CSCC(=O)N[C@@H](Cc2ccc(OC)cc2)C(=O)N(C)[C@@H](C)C(=O)N[C@@H](CC(N)=O)C(=O)N2CCC[C@H]2C(=O)N[C@@H](Cc2c[nH]cn2)C(=O)N[C@@H](CCC(N)=O)C(=O)N2C[C@H](O)C[C@H]2C(=O)N[C@@H](Cc2c[nH]c3ccccc23)C(=O)N[C@@H](CO)C(=O)N[C@@H](Cc2c[nH]c3ccccc23)C(=O)N1C [Example 7135] ({CH2CO}-Y(Me)[NMeA]NPHQ[Hyp]WSW[NMeNle][NMeNle]LCG-NH2; thioether N-14) |  | 5.6 nM |
| CCCC[C@H]1C(=O)N(C)[C@@H](CCCC)C(=O)N[C@@H](CC(C)C)C(=O)N[C@H](C(=O)NCC(N)=O)CSCC(=O)N[C@@H](Cc2ccc(OC)cc2)C(=O)N(C)[C@@H](C)C(=O)N[C@@H](CC(N)=O)C(=O)N2CCC[C@H]2C(=O)N[C@@H](CO)C(=O)N[C@@H](CCC(N)=O)C(=O)N2C[C@H](O)C[C@H]2C(=O)N[C@@H](Cc2c[nH]c3ccccc23)C(=O)N[C@@H](CO)C(=O)N[C@@H](Cc2c[nH]c3ccccc23)C(=O)N1C [Example 7136] ({CH2CO}-Y(Me)[NMeA]NPSQ[Hyp]WSW[NMeNle][NMeNle]LCG-NH2; thioether N-14) | 1 to 9.9 nM |  |
| CCCC[C@H]1C(=O)N(C)[C@@H](CCCC)C(=O)N[C@@H](CO)C(=O)N[C@H](C(=O)NCC(N)=O)CSCC(=O)N[C@@H](Cc2ccc(OC)cc2)C(=O)N(C)[C@@H](C)C(=O)N[C@@H](CC(N)=O)C(=O)N2CCC[C@H]2C(=O)N[C@@H](Cc2c[nH]cn2)C(=O)N[C@@H](CCC(N)=O)C(=O)N2C[C@H](O)C[C@H]2C(=O)N[C@@H](Cc2c[nH]c3ccccc23)C(=O)N[C@@H](CO)C(=O)N[C@@H](Cc2c[nH]c3ccccc23)C(=O)N1C [Example 7137] ({CH2CO}-Y(Me)[NMeA]NPHQ[Hyp]WSW[NMeNle][NMeNle]SCG-NH2; thioether N-14) | 1 to 9.9 nM |  |
| CCCC[C@H]1C(=O)N(C)[C@@H](CCCC)C(=O)N[C@@H](CO)C(=O)N[C@H](C(=O)NCC(N)=O)CSCC(=O)N[C@@H](Cc2ccc(OC)cc2)C(=O)N(C)[C@@H](C)C(=O)N[C@@H](CC(N)=O)C(=O)N2CCC[C@H]2C(=O)N[C@@H](CO)C(=O)N[C@@H](CCC(N)=O)C(=O)N2C[C@H](O)C[C@H]2C(=O)N[C@@H](Cc2c[nH]c3ccccc23)C(=O)N[C@@H](CO)C(=O)N[C@@H](Cc2c[nH]c3ccccc23)C(=O)N1C [Example 7138] ({CH2CO}-Y(Me)[NMeA]NPSQ[Hyp]WSW[NMeNle][NMeNle]SCG-NH2; thioether N-14) | 1 to 9.9 nM |  |
| CCCC[C@H]1C(=O)N(C)[C@@H](CCCC)C(=O)N[C@@H](C(C)O)C(=O)N[C@H](C(=O)NCC(N)=O)CSCC(=O)N[C@@H](Cc2ccc(OC)cc2)C(=O)N(C)[C@@H](C)C(=O)N[C@@H](CC(N)=O)C(=O)N2CCC[C@H]2C(=O)N[C@@H](Cc2c[nH]cn2)C(=O)N[C@@H](CCC(N)=O)C(=O)N2C[C@H](O)C[C@H]2C(=O)N[C@@H](Cc2c[nH]c3ccccc23)C(=O)N[C@@H](CO)C(=O)N[C@@H](Cc2c[nH]c3ccccc23)C(=O)N1C (stereo partly drawn) [Example 7139] ({CH2CO}-Y(Me)[NMeA]NPHQ[Hyp]WSW[NMeNle][NMeNle][Thr(3ξ)]CG-NH2; thioether N-14) | 1 to 9.9 nM |  |
| CCCC[C@H]1C(=O)N(C)[C@@H](CCCC)C(=O)N[C@@H](CCC(=O)O)C(=O)N[C@H](C(=O)NCC(N)=O)CSCC(=O)N[C@@H](Cc2ccc(OC)cc2)C(=O)N(C)[C@@H](C)C(=O)N[C@@H](CCN)C(=O)N2CCC[C@H]2C(=O)N[C@@H](CN)C(=O)N[C@@H](CCC(=O)O)C(=O)N2C[C@H](O)C[C@H]2C(=O)N[C@@H](Cc2c[nH]c3ccccc23)C(=O)N[C@@H](CCN)C(=O)N[C@@H](Cc2cn(CC(=O)O)c3ccccc23)C(=O)N1C [Example 7140] ({CH2CO}-Y(Me)[NMeA][Dab]P[Dap]E[Hyp]W[Dab][Trp(1-CH2COOH)][NMeNle][NMeNle]ECG-NH2; thioether N-14) | 1 to 9.9 nM |  |
| CCCC[C@H]1C(=O)N(C)[C@@H](CCCC)C(=O)N[C@@H](CC(C)C)C(=O)N[C@H](C(=O)NCC(N)=O)CSCC(=O)N[C@@H](Cc2ccc(OC)cc2)C(=O)N(C)[C@@H](C)C(=O)N[C@@H](CC(N)=O)C(=O)N2CCC[C@H]2C(=O)N[C@@H](Cc2c[nH]cn2)C(=O)N[C@@H](CCC(N)=O)C(=O)N2C[C@H](O)C[C@H]2C(=O)N[C@@H](Cc2c[nH]c3ccccc23)C(=O)N[C@@H](CO)C(=O)N[C@@H](Cc2cn(CC(=O)O)c3ccccc23)C(=O)N1C [Example 7141] ({CH2CO}-Y(Me)[NMeA]NPHQ[Hyp]WS[Trp(1-CH2COOH)][NMeNle][NMeNle]LCG-NH2; thioether N-14) | 1 to 9.9 nM |  |
| CCCC[C@H]1C(=O)N(C)[C@@H](CCCC)C(=O)N[C@@H](CC(C)C)C(=O)N[C@H](C(=O)NCC(N)=O)CSCC(=O)N[C@@H](Cc2ccc(OC)cc2)C(=O)N(C)[C@@H](C)C(=O)N[C@@H](CC(N)=O)C(=O)N2CCC[C@H]2C(=O)N[C@@H](CO)C(=O)N[C@@H](CCC(N)=O)C(=O)N2C[C@H](O)C[C@H]2C(=O)N[C@@H](Cc2c[nH]c3ccccc23)C(=O)N[C@@H](CO)C(=O)N[C@@H](Cc2cn(CC(=O)O)c3ccccc23)C(=O)N1C [Example 7142] ({CH2CO}-Y(Me)[NMeA]NPSQ[Hyp]WS[Trp(1-CH2COOH)][NMeNle][NMeNle]LCG-NH2; thioether N-14) | 1 to 9.9 nM |  |
